Laboratory results as given in PubChem BioAssay AID493245 (The Scripps Research Institute Molecular Screening Center, 2011).
Active and inactive are the calls of the source. How the calls were made is not given here.

test system: 3C-like protease (Infectious bronchitis virus); test: blockers of SARS 3CLpro activity – biochemical, fluorescence, set 3, late-stage follow-up (AID 493245); conditions: recombinant 3CLpro, fluorogenic substrate cleavage; at 100 µM; active compounds read high

SMILES	inhibition
CC(C)(C)NC(=O)C(c1cccnc1)N(C(=O)c1ccco1)C12CC3CC(CC(C3)C1)C2 (stereo unspecified)	1.27% (inactive)
O=C(Nc1ccc(N(C(=O)Cn2nnc3ccccc32)C(C(=O)NCc2ccccc2)c2cccc(F)c2)cc1)C1CC1 (stereo unspecified)	68.8%
CC(C)C(=O)Nc1ccc(N(C(=O)Cn2nnc3ccccc32)C(C(=O)NCc2ccccc2)c2cccc(F)c2)cc1 (stereo unspecified)	73.5%
CC(C)(C)NC(=O)C(c1cccnc1)N(C(=O)c1ccco1)C1CCCCC1 (stereo unspecified)	4.49% (inactive)
O=C(Nc1ccc(N(C(=O)Cn2nnc3ccccc32)C(C(=O)NCc2ccccc2)c2cccc(F)c2)cc1)C1CCC1 (stereo unspecified)	62.5%
CC(C)(C)NC(=O)C(c1cccnc1)N(C(=O)c1ccco1)C1CC2CCC1C2 (stereo unspecified)	5.71% (inactive)
